# From patent US10408843B2, “Compositions and methods for detecting S-nitrosylation and S-sulfinylation” (The Regents of the University of Michigan, priority 2013, dated 2019)
# Assays:
# [1] = type: physicochemical
# Description: S-nitrosoglutathione (GSNO, Cayman) and sodium phenylsulfinate (Sigma-Aldrich) were used for rate-determination studies at four pH values: pH 1.0 (0.2 N HCl/KCl buffer), pH 4.0 (0.1 M Sodium acetate/Acetic Acid buffer), pH 7.0 (0.1 M potassium phosphate buffer) and pH 10.0 (0.1 M Sodium bicarbonate/Sodium hydroxide buffer). The purity of S-nitrosoglutathione was calculated as 94±1.3% by absorbance at 334 nm using the molar extinction coefficient of 900 M^−1 cm^−1. Assays were performed using a plate reader (Tecan Infinite F500) monitoring absorbance of 2 mM GSNO at 340 nm over a course of 90 minutes in the presence of varying concentrations of sodium phenylsulfinate. Additional experiments confirmed thiosulfonate stability for >5 hours at pH 1, 4, and 7, but hydrolysis at pH 10. GSNO was stable in 6 M urea/PBS for >1 hour. Absorbance data was imported into KaleidaGraph (version 4.02, Synergy Software), and logarithmically fit to the first order exponential decay. The Kobs was calculated for each phenylsulfinic acid concentration, and plotted to calculate the rate constant for the overall reaction.
# human DJ-1 (Cys106-SO2H) = target: T1, human DJ-1 (Cys106-SO2H) (Homo sapiens, UniProt Q99497); experiment: LC-MS analysis of DJ-1 conjugation with an S-nitrosothiol; type: biochemical; details: after iodoacetamide alkylation
# T1 construct: 6His; made in house; host or cells: E. coli BL21
# T1 sequence (Q99497 1-189): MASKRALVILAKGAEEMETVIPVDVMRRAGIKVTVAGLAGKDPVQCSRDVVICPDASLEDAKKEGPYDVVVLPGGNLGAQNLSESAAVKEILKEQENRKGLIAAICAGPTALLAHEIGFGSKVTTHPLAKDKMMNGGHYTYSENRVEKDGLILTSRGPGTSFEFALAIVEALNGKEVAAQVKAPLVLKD
# Excerpt: (§1) FIG. 20A-C. S-nitrosothiol probes detect endogenous S-sulfinylation. (a) Direct conjugation of human DJ-1 (Cys106-SO2H) with N-acetyl-S-nitrosocysteine methyl ester. (b) MS/MS assignment of product ions from the S-sulfinylated peptide of human DJ-1, confirming direct thiosulfonate formation. (c) Gel-based analysis of S-sulfinylation in mammalian lysates with biotin-GSNO. Lysates are denatured and pre-alkylated with iodoacetamide.
# It was next asked what would happen if the detection scheme was reversed, using S-nitrosothiol-linked probes to detect endogenous S-sulfinylation. Similar reactivity was recently reported using aryl-nitroso ligation to several sulfinic acid standards, including glutathione, to form a stable N-sulfonylbenzisoxazolone (see, e.g., Lo Conte, M. & Carroll, K. S. Angew Chem Int Ed Engl 51, 6502-5 (2012)). Despite such progress, there are no reported methods to selectively profile endogenous S-sulfinylation in complex proteomes. […]
# Purified human GAPDH was diluted to 0.2 mg/mL in phosphate buffered saline (pH 7.3), and treated with 20 mM iodoacetamide for 30 minutes. […] Eluted peptides were analyzed using a Waters Synapt G2-S HDMS time-of-flight mass spectrometer in positive mode. […] MS data was searched using Waters Protein Lynx Global Server v3.0 using the exact mass calculated for the cysteine thiosulfonate modification.
# [2] = test system: S-sulfinylated proteins in mammalian lysates; experiment: Gel-based analysis of S-sulfinylation with biotin-GSNO; type: biochemical; details: lysates in 6 M urea/PBS, pre-alkylated with iodoacetamide
# Excerpt: as §1
# It was next asked what would happen if the detection scheme was reversed, using S-nitrosothiol-linked probes to detect endogenous S-sulfinylation. Similar reactivity was recently reported using aryl-nitroso ligation to several sulfinic acid standards, including glutathione, to form a stable N-sulfonylbenzisoxazolone (see, e.g., Lo Conte, M. & Carroll, K. S. Angew Chem Int Ed Engl 51, 6502-5 (2012)). Despite such progress, there are no reported methods to selectively profile endogenous S-sulfinylation in complex proteomes. In order to test this approach, recombinant human DJ-1 was purified, a redox chaperone that spontaneously forms a stable sulfinic acid at Cys106 (see, e.g., Canet-Aviles, R. M. et al. Proc Natl Acad Sci USA 101, 9103-8 (2004)). After iodoacetamide alkylation of free thiols, N-acetyl-S-nitrosocysteine methyl ester was added to DJ-1, and processed for high-resolution LC-MS analysis (FIG. 20A and FIG. 21)). […]
smiles,measurement,setting,value
"N[C@@H](CCC(=O)N[C@@H](CSN=O)C(=O)NCC(=O)O)C(=O)O [GSNO, S-nitrosoglutathione, reference compound]",stability,[1],> 1 h
"COC(=O)[C@H](CSN=O)NC(C)=O [N-acetyl-S-nitrosocysteine methyl ester, (R)-methyl 2-acetamido-3-(nitrosothio)propanoate]",thiosulfonate formation with DJ-1,human DJ-1 (Cys106-SO2H),confirmed thiosulfonate formation at Cys106-SO2H
"O=NSC[C@H](NC(=O)CCC(NC(=O)CCCC[C@@H]1SC[C@@H]2NC(=O)N[C@@H]21)C(=O)O)C(=O)NCC(=O)O (stereo partly drawn) [biotin-GSNO, 5-(((R)-1-((carboxymethyl)amino)-3-(nitrosothio)-1-oxopropan-2-yl)amino)-5-oxo-2-(5-((3aS,4S,6aR)-2-oxohexahydro-1H-thieno[3,4-d]imidazol-4-yl)pentanamido)pentanoic Acid]",labeling of S-sulfinylated proteins,[2],distinct profile of putative S-sulfinylated proteins
